Test results published in patent publication US20040023892A1, “Pharmaceutical composition based on a non-steroid anti-inflammatory agent” (priority 2002, published 2004).
Marks after values point to notes of the source that are not given here.

Experiments:
ambulatory patients [1] = test: Clinical investigation of side effects of NAIA combinations with carbohydrates or sorbents
[2] = system: inflammatory swelling of paw of mice after introduction of carragenin; test: Inflammatory swelling of paw of mice after introduction of carragenin; type: in vivo; conditions: dose mg/kg; for swelling of paw of mice after introduction of carragenine: Table 4, Control: NAIA alone; for Increase of Mass of Limb / Suppression of Swelling, % to Control: preparation alone, into stomach once a day 5 days, 3.5 hours after carragenin; for swelling of paw of mice after introduction of carragenin: the values are: increase of paw mass
Description: Tests were performed on breedless white mice-males with mass 22-24 g. The investigated preparations were introduced to animals through a probe into stomach once a day during five days in form of suspension on 1% starch mucous or aqueous solution.
In one hour after the last introduction of preparations, mice were injected with 0.05 ml of 1% of solution of carragenin in isotonic solution of sodium chloride, under aneurism of right rear paw. After 3.5 hours, on a peak of inflammation, they were killed by dislocation of a neck area of spine. Swollen and healthy paws were compared, and a degree of suppression of swelling was determined in test groups when compared with a control group in accordance with the formula:
Increase of mass of paw in control-increase of mass of paw in test ______ 100 increase of mass of paw in control.
Tests were performed on breedless white mice-males with mass 22-26 g.

breedless mice-male = test: Acute toxicity of ASA (LD50) with carbohydrate or sorbent; type: in vivo; conditions: relative to LD50 of ASA alone
Description: Tests were conducted on breedless mice-male with mass 22-26 g. Acute toxicity of ASA was evaluated in accordance with the value LD50 (dose from which 50% of animals perish) of composition containing ACA plus carbohydrate or sorbent with ratio 4:1 when compared with LD50 ASA. Preparations were introduced one time intostomach in form of aqueous suspension with doses 350-3000 mg/kg to groups of six mice. Observations were conducted during 14 days. As a substance which has absorbing properties there were used activated carbon, white clay (caolin), aluminum hydroxide, magnium tricilicate, hydroxylapatite, microcrystaalline cellulose (MCC). As carbohydrates there were used monosaccarides-glucose and fructose, disaccaride-saccarose and lactose, and polysaccaride-potato starch. Results of experiments were processed in accordance with the method of Lichfield-Wilkoxon (Belensky, M. L. “Elements of quantitative evaluation of pharmacological effect,” second edition, redone and added, L, Medgiz, 1963, 152 p).
LD50 composition were counted on ASA (tables 7, 8).

ambulatory patients [3] = conditions: human, in vivo
[4] = 0.25 g with succinate of ammonium 0.1 g and activated carbon (0.35 g), two times a day 8 weeks

| Compound | swelling of paw of mice after introduction of carragenine ([2]; N = 10) | Increase of Mass of Limb ([2]; n = 10) [mg] | Suppression of Swelling, % to Control ([2]; n = 10) | further results |
| --- | --- | --- | --- | --- |
| CC(=O)Oc1ccccc1C(=O)O [ASA, acetyl salicylic acid] | 41.3* |  |  | better taking of mixture ASA and ammonium succinate (ambulatory patients [1]; [4]): Four from five; dyspeptic phenomena (ambulatory patients [1]; [4]): all 5 exhibited dyspeptic phenomena to a lesser degree; Increase of Toxicity In (breedless mice-male): 0 |
| CCCCC1C(=O)N(c2ccccc2)N(c2ccccc2)C1=O [BN, butadion] | 32.4* |  |  |  |
| O=C(O)/C=C/C(=O)O [FUM, fumaric] |  | 59.3 ± 5.5 | −1.3 % to Control |  |
| NCC(=O)O [GLy, glycin] |  | 63.0 ± 5.5 | +4.8 % to Control |  |
| COc1ccc2c(c1)c(CC(=O)O)c(C)n2C(=O)c1ccc(Cl)cc1 [IM, indometatsin] | 19.0* |  |  | patients needing antyhistamine substances for reduction of allergenic phenomena (ambulatory patients [1]; 0.05 g with 0.25 g karsil, group which did not receive sorbent): one more patient needed antyhistamine substances; patients forced to stop taking preparation because of strong headaches in epigastric, vomiting (ambulatory patients [1]; 0.05 g with 0.25 g karsil, group which did not receive sorbent, after the third week): 1 patient; side effects of indometnacyne, in particular dispeptic phenomena, dizziness, headaches (ambulatory patients [1]; 0.05 g with 0.25 g karsil, together with microcrystalline cellulose 1:2, 5 weeks, versus without sorbent): to a lesser degree |
| O=c1c(O)c(-c2ccc(O)c(O)c2)oc2cc(O)cc(O)c12 [KV, kvertsetin] |  | 58.7 ± 3.6 | −2.3 % to Control |  |
| O=C(O)CCCCC1CCSS1 (stereo not drawn) [Lipoic acid LA, lipoic acid] |  | 62.3 | +3.7 % to Control |  |
| O=C(O)c1cccnc1Nc1cccc(C(F)(F)F)c1 [NA, niflumic acid] | 31.1* |  |  |  |
| COc1ccc2cc([C@H](C)C(=O)O)ccc2c1 [NP, naproxen] | 28.9* |  |  |  |
| CN1C(C(=O)Nc2ccccn2)=C(O)c2ccccc2S1(=O)=O [PK, piroxikam] | 28.8* | 28.8 ± 4.9 | −52.0 % to Control | swelling of paw of mice after introduction of carragenin ([2]; Table 2, column Control: NAIA alone, N = 10): 28.8 mg; swelling of paw of mice after introduction of carragenin ([2]; Table 3, column Control: NAIA alone, n = 10): 28.8 mg; swelling of paw of mice after introduction of carragenin ([2]; Table 5, column Control: NAIA alone, N = 10): 28.8 mg |
| N.N.O=C(O)CCC(=O)O [S-NH4, succinate of ammonium] |  | 63.5 ± 6.1 | +5.7 % to Control |  |
| N[C@@H](CS)C(=O)O [TIS, tsistein] |  | 61.5 ± 6.4 | +2.3 % to Control |  |
| O=C(O)Cc1ccccc1Nc1c(Cl)cccc1Cl [VL, voltaren] | 24.3* |  |  |  |
| O=C([O-])Cc1ccccc1Nc1c(Cl)cccc1Cl.[Na+] [ortofen] |  |  |  | dispeptic phenomenon, headaches, dizziness (ambulatory patients [3]): less exhibited; taking of medication (ambulatory patients [3]): taking medication better |
| Vitamin B6 [Vit B6] |  | 60.5 | +0.7 % to Control |  |
| Vitamin E [Vit E] |  | 58.7 | −2.3 % to Control |  |
